Results as given in patent publication EP4471048A1, “PEPTIDE INHIBITORS OF INTERLEUKIN-23 RECEPTOR” (Zealand Pharma A/S, priority 2023, dated 2024).
Where a SMILES comes first, the peptide text is derived from it. Bridges are numbered along the chain shown (N, C = ends). [ ]: non-standard residue; d: D form. The star is where a group is joined. NH(2-(3-pyridyl)ethyl) = c1cncc(CCN*)c1; 2Nal = N[C@@H](Cc1ccc2ccccc2c1)C(=O)O; AEF = NCCOc1ccc(C[C@H](N)C(=O)O)cc1; 3Pal = N[C@@H](Cc1cccnc1)C(=O)O; β3hE = N[C@@H](CCC(=O)O)CC(=O)O; αMeL = CC(C)C[C@](C)(N)C(=O)O; Dab = NCC[C@H](N)C(=O)O

Target: T1, human IL-23R (Homo sapiens, UniProt Q5VWK5)
T1 sequence (Q5VWK5 22-629): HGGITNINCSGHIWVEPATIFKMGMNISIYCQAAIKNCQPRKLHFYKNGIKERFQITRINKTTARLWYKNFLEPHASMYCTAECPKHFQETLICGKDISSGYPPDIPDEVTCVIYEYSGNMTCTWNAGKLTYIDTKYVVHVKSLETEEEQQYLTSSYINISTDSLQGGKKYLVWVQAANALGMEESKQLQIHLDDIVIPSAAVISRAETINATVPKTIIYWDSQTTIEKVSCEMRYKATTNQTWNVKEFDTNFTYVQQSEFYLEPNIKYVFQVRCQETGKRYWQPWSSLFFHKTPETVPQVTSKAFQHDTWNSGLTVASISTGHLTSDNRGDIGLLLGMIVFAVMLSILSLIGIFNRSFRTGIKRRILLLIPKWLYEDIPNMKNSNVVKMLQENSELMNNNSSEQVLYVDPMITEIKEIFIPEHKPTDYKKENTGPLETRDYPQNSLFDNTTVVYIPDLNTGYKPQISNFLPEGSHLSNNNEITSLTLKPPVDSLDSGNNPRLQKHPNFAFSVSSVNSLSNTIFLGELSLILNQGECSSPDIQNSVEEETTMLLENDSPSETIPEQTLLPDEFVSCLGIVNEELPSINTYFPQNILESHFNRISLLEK
Experiment: biochemical
Details: for Emax: read-out: % displacement (hIL-23R NIuc)
Outline: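 BRET displacement of a TAMRA-labelled reference compound from N-terminal Nanoluc-IL-23R fusion protein in membranes from stably transfected HEK293 cells. Incubation 2 h at room temperature, then Nanoluc substrate was added and the TAMRA/Nanoluc ratio read. IC50 and maximal displacement came from 4-parameter logistic fits.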

Structure (SMILES)	IC50 [nM]	Emax [%]	% displacement (hIL-23R NIuc) [%]
COc1ccc(C[C@@H]2NC(=O)[C@@H]3CCC(=O)N[C@@H](CCCCNC(=O)CC[C@@H](C(=O)N[C@@H](CCCCNC(=O)CCc4cccnc4)C(N)=O)NC(=O)[C@](C)(CC(C)C)NC(=O)[C@H](Cc4ccc5ccccc5c4)NC2=O)C(=O)N[C@@H]([C@@H](C)O)C(=O)N[C@@H](C(C)C)C(=O)N[C@@H](Cc2c[nH]c4ccccc24)C(=O)N[C@@H](CCC(N)=O)C(=O)N3)cc1 [Compound 52, K(1c)(6c)^†TVWQE(6c)[Y(Me)][2-Nal][2-Me-Leu]E(1c)[K(3-pyridylpropionyl)]-[NH2]]	120	101	–
COc1ccc(C[C@@H]2NC(=O)[C@@H]3CCC(=O)N[C@@H](CCCCNC(=O)CC[C@@H](C(=O)N[C@@H](CCCCNC(=O)c4ccncc4)C(N)=O)NC(=O)[C@](C)(CC(C)C)NC(=O)[C@H](Cc4ccc5ccccc5c4)NC2=O)C(=O)N[C@@H]([C@@H](C)O)C(=O)N[C@@H](C(C)C)C(=O)N[C@@H](Cc2c[nH]c4ccccc24)C(=O)N[C@@H](CCC(N)=O)C(=O)N3)cc1 [Compound 53, K(1c)(6c)^†TVWQE(6c)[Y(Me)][2-Nal][2-Me-Leu]E(1c)[K(isonicotinyl)]-[NH2]]	420	95	–
COc1ccc(C[C@@H]2NC(=O)[C@@H]3CCC(=O)N[C@@H](CCCCNC(=O)CC[C@@H](C(=O)N[C@@H](CCCCNC(=O)Cc4ccncc4)C(N)=O)NC(=O)[C@](C)(CC(C)C)NC(=O)[C@H](Cc4ccc5ccccc5c4)NC2=O)C(=O)N[C@@H]([C@@H](C)O)C(=O)N[C@@H](C(C)C)C(=O)N[C@@H](Cc2c[nH]c4ccccc24)C(=O)N[C@@H](CCC(N)=O)C(=O)N3)cc1 [Compound 54, K(1c)(6c)^†TVWQE(6c)[Y(Me)][2-Nal][2-Me-Leu]E(1c)[K(4-pyridylacetyl)]-[NH2]]	290	105	–
COc1ccc(C[C@@H]2NC(=O)[C@@H]3CCC(=O)N[C@@H](CCCCNC(=O)CC[C@@H](C(=O)N[C@@H](CCCCNC(=O)CCc4ccncc4)C(N)=O)NC(=O)[C@](C)(CC(C)C)NC(=O)[C@H](Cc4ccc5ccccc5c4)NC2=O)C(=O)N[C@@H]([C@@H](C)O)C(=O)N[C@@H](C(C)C)C(=O)N[C@@H](Cc2c[nH]c4ccccc24)C(=O)N[C@@H](CCC(N)=O)C(=O)N3)cc1 [Compound 55, K(1c)(6c)^†TVWQE(6c)[Y(Me)][2-Nal][2-Me-Leu]E(1c)[K(4-pyridylpropionyl)]-[NH2]]	140	100	–
COc1ccc(C[C@@H]2NC(=O)[C@@H]3CCC(=O)N[C@@H](CCCCNC(=O)CC[C@@H](C(=O)N[C@@H](CCCCNC(=O)c4cncnc4)C(N)=O)NC(=O)[C@](C)(CC(C)C)NC(=O)[C@H](Cc4ccc5ccccc5c4)NC2=O)C(=O)N[C@@H]([C@@H](C)O)C(=O)N[C@@H](C(C)C)C(=O)N[C@@H](Cc2c[nH]c4ccccc24)C(=O)N[C@@H](CCC(N)=O)C(=O)N3)cc1 [Compound 56, K(1c)(6c)^†TVWQE(6c)[Y(Me)][2-Nal][2-Me-Leu]E(1c)[K(3,5-pyrimidine)]-[NH2]]	210	98	–
COc1ccc(C[C@@H]2NC(=O)[C@@H]3CCC(=O)N[C@@H](CCCCNC(=O)CC[C@@H](C(=O)N[C@@H](CCCCNC(=O)Cc4ccnc(F)c4)C(N)=O)NC(=O)[C@](C)(CC(C)C)NC(=O)[C@H](Cc4ccc5ccccc5c4)NC2=O)C(=O)N[C@@H]([C@@H](C)O)C(=O)N[C@@H](C(C)C)C(=O)N[C@@H](Cc2c[nH]c4ccccc24)C(=O)N[C@@H](CCC(N)=O)C(=O)N3)cc1 [Compound 57, K(1c)(6c)^†TVWQE(6c)[Y(Me)][2-Nal][2-Me-Leu]E(1c)[K(4-pyridyl-3-fluoroacetyl)]-[NH2]]	790	93	–
COc1ccc(C[C@@H]2NC(=O)[C@@H]3CCC(=O)N[C@@H](CCCCNC(=O)CC[C@@H](C(=O)N[C@@H](CCCCNC(=O)Cc4ncc[nH]4)C(N)=O)NC(=O)[C@](C)(CC(C)C)NC(=O)[C@H](Cc4ccc5ccccc5c4)NC2=O)C(=O)N[C@@H]([C@@H](C)O)C(=O)N[C@@H](C(C)C)C(=O)N[C@@H](Cc2c[nH]c4ccccc24)C(=O)N[C@@H](CCC(N)=O)C(=O)N3)cc1 [Compound 58, K(1c)(6c)^†TVWQE(6c)[Y(Me)][2-Nal][2-Me-Leu]E(1c)[K(Imidazoleacetyl)]-[NH2]]	550	–	–
COc1ccc(C[C@@H]2NC(=O)[C@@H]3CCC(=O)N[C@@H](CCCCNC(=O)CC[C@@H](C(=O)N[C@@H](CCCCNC(=O)CCc4ncc[nH]4)C(N)=O)NC(=O)[C@](C)(CC(C)C)NC(=O)[C@H](Cc4ccc5ccccc5c4)NC2=O)C(=O)N[C@@H]([C@@H](C)O)C(=O)N[C@@H](C(C)C)C(=O)N[C@@H](Cc2c[nH]c4ccccc24)C(=O)N[C@@H](CCC(N)=O)C(=O)N3)cc1 [Compound 59, K(1c)(6c)^†TVWQE(6c)[Y(Me)][2-Nal][2-Me-Leu]E(1c)[K(Imidazolepropanoyl)]-[NH2]]	330	–	–
CC[C@H](C)[C@@H]1NC(=O)[C@@H]2CCCCNC(=O)CC[C@@H](CC(=O)N[C@@H](Cc3cccnc3)C(=O)NC)NC(=O)[C@](C)(CC(C)C)NC(=O)[C@H](Cc3ccc4ccccc4c3)NC(=O)[C@H](Cc3ccc(OCCN)cc3)NC(=O)[C@H](CCC(=O)N2)NC(=O)[C@H](CCC(N)=O)NC(=O)[C@H](Cc2c[nH]c3ccccc23)NC(=O)[C@H](C(C)C)NC1=O [Compound 61, K(1c)(6c)^†IVWQE(6c)[Y(2-aminoethoxy)][2-Nal][2-Me-Leu][beta-hGlu](cyclo1)[3-(3-Pyridyl)-Ala]-[NHMe]] (KIVWQE[AEF][2Nal][αMeL][β3hE][3Pal]-NHMe; lactam 1-10, N-6)	11	99	–
CC[C@H](C)[C@@H]1NC(=O)[C@@H]2CCCCNC(=O)CC[C@@H](C(=O)N3CCC[C@H]3C(=O)N[C@@H](Cc3cccnc3)C(=O)NC)NC(=O)[C@](C)(CC(C)C)NC(=O)[C@H](Cc3ccc4ccccc4c3)NC(=O)[C@H](Cc3ccc(OCCN)cc3)NC(=O)[C@H](CCC(=O)N2)NC(=O)[C@H](CCC(N)=O)NC(=O)[C@H](Cc2c[nH]c3ccccc23)NC(=O)[C@H](C(C)C)NC1=O [Compound 63, K(1c)(6c)^†IVWQE(6c)[Y(2-aminoethoxy)][2-Nal][2-Me-Leu]E(1c)P[3-(3-Pyridyl)-Ala]-[NHMe]] (KIVWQE[AEF][2Nal][αMeL]EP[3Pal]-NHMe; lactam 1-10, N-6)	150	–	98
CC[C@H](C)[C@@H]1NC(=O)[C@@H]2CCCCNC(=O)CC[C@@H](CC(=O)NCCc3cccnc3)NC(=O)[C@](C)(CC(C)C)NC(=O)[C@H](Cc3ccc4ccccc4c3)NC(=O)[C@H](Cc3ccc(OCCN)cc3)NC(=O)[C@H](CCC(=O)N2)NC(=O)[C@H](CCC(N)=O)NC(=O)[C@H](Cc2c[nH]c3ccccc23)NC(=O)[C@H](C(C)C)NC1=O [Compound 65, K(1c)(6c)^†IVWQE(6c)[Y(2-aminoethoxy)][2-Nal][2-Me-Leu][beta-hGlu](1c)-[NH-2-(pyridin-3-yl)ethyl]] (KIVWQE[AEF][2Nal][αMeL][β3hE]-{NH(2-(3-pyridyl)ethyl)}; lactam 1-10, N-6)	140	99	–
CC[C@H](C)[C@@H]1NC(=O)[C@@H]2CCCCNC(=O)CC[C@@H](C(=O)N[C@@H](CCN)C(=O)NCCCc3cccnc3)NC(=O)[C@](C)(CC(C)C)NC(=O)[C@H](Cc3ccc4ccccc4c3)NC(=O)[C@H](Cc3ccc(OCCN)cc3)NC(=O)[C@H](CCC(=O)N2)NC(=O)[C@H](CCC(N)=O)NC(=O)[C@H](Cc2c[nH]c3ccccc23)NC(=O)[C@H](C(C)C)NC1=O [Compound 67, K(1c)(6c)^†IVWQE(6c)[Y(2-aminoethoxy)][2-Nal][2-Me-Leu]E(1c)[Dab]-[NH-3-(pyridin-3-yl)propyl]]	2.6	102	–
CC(C)[C@@H]1NC(=O)[C@H]([C@@H](C)O)NC(=O)[C@@H]2CCCCNC(=O)CC[C@@H]3NC(=O)[C@H](CCNC(=O)[C@H](Cc4cccnc4)NC(=O)[C@H](CCN)NC3=O)NC(=O)[C@H](Cc3ccc4ccccc4c3)NC(=O)[C@H](Cc3ccc(OCCN)cc3)NC(=O)[C@H](CCC(=O)N2)NC(=O)[C@H](CCC(N)=O)NC(=O)[C@H](Cc2c[nH]c3ccccc23)NC1=O [Compound 76, K(1c)(6c)^†TVWQE(6c)[Y(2-aminoethoxy)][2-Nal][Dab](7c)E(1c)[Dab][3-(3-Pyridyl)-Ala](7c)^‡] (KTVWQE[AEF][2Nal][Dab]E[Dab][3Pal]; lactam 1-10, 9-C, N-6)	3.7	92	–
CC(C)[C@@H]1NC(=O)[C@H]([C@@H](C)O)NC(=O)[C@@H]2CCCCNC(=O)CC[C@@H]3NC(=O)[C@H](CCCCNC(=O)[C@H](Cc4cccnc4)NC(=O)[C@H](CCN)NC3=O)NC(=O)[C@H](Cc3ccc4ccccc4c3)NC(=O)[C@H](Cc3ccc(OCCN)cc3)NC(=O)[C@H](CCC(=O)N2)NC(=O)[C@H](CCC(N)=O)NC(=O)[C@H](Cc2c[nH]c3ccccc23)NC1=O [Compound 77, K(1c)(6c)^†TVWQE(6c)[Y(2-aminoethoxy)][2-Nal]K(7c)E(1c)[Dab][3-(3-Pyridyl)-Ala](7c)^‡]	9.9	97	–
